Source: article PMC4245125, “Pharmacological and Behavioral Characterization of D-473, an Orally Active Triple Reuptake Inhibitor Targeting Dopamine, Serotonin and Norepinephrine Transporters” (PLoS ONE, 2014)
Entries after “also recorded” stand apart in the source; their conditions may differ.

Columns and labels:
duration of immobility = assay: Forced swim test in rats after oral administration; assay type: in vivo; details: rat, sub-chronic
Method: The experiment was carried out in the same way as described in our previous publications according to the Porsolt protocol, [30]. The subjects were male Sprague Dawley rats (Harlam Sprague Dawley Inc., Indianapolis, Ind., USA) weighing 200–225 g housed in cages for at least 1 week prior to testing. Animals were maintained in a temperature-controlled environment under a 12 hr light-dark cycle. All subjects were naive and were used only once. Rats were transported to the testing room at least for one hour prior to testing for acclimatization and adaptation purposes. Experimental sessions were conducted between 9 AM to 2 PM daily. Animals were assigned randomly and were placed individually in a glass cylinder (24.5 cm×35.5 cm) filled with water at room temperature to a depth of 22 cm. All the test sessions were recorded by video cameras. The water was changed in the beginning of each session and the temperature was maintained constant at 24–25°C. Rats were judged to be immobile if they made only minimal movement, barely keeping afloat. The test procedure consisted of a pretest and test session separated by 24 h. During the pretest period, rats were placed in the swim chamber for 15 min. Followed by the initial swim exposure; rats were patted dry and were transferred to the individual cages. Drugs or vehicle were then orally administered (p.o) 15 min after the initial swim exposure and were then transported to their home cages. On the following day the rats were brought back to the testing room at least 1 h before the beginning of test session. Rats were administered either drugs or vehicle 1 h before the swim test. Each rat underwent a 5-min swim session, which was videotaped and scored later. In the case of imipramine, pretreatment time was 30 min. Drug solutions were prepared freshly on the test days. Compound D-473 was dissolved in 3% beta-hydroxy propyl cyclodextrin solution. All drug and vehicle preparations were administered orally. D-473 was administered at a dose of 5, 10, 25 and 50 mg/kg and the volume was maintained at 1.2 mL/rat. Drug or vehicle was administered 1 h prior to testing for forced swimming. An individual, blinded to the treatment, scored the videotapes for immobility. Immobility scores were analyzed by one way ANOVA test. Behavioral results were analyzed with Prism 6.0 (GraphPad Software, San Diego, CA). The immobility time for forced swimming test was analyzed by one-way ANOVA (analysis of variance) followed by post Dunnett’s multiple comparison test vs. vehicle. Data for vehicle was used as negative control, respectively. Statistical significance was assumed in analysis if p≤0.05.

5HT1e = target: T1, 5HT1e (Homo sapiens, UniProt P28566); assay: NIMH PDSP receptor binding, 5HT1e; details: [3H]5-HT, read-out: % Inhibition of Binding at 10 µM D-473
T1 construct: purchased NIMH PDSP
T1 sequence (P28566 whole entry): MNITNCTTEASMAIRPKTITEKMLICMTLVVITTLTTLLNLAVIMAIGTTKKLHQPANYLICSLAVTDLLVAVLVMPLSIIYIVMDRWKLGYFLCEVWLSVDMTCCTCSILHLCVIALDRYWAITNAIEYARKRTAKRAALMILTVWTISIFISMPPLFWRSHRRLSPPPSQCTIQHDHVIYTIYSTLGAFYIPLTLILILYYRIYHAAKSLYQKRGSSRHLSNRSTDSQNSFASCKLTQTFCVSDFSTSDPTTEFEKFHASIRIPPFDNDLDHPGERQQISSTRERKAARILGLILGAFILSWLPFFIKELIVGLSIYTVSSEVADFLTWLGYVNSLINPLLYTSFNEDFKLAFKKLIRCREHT

[1] = Plasma concentration after oral administration in rats; assay type: in vivo; details: rat, male Sprague-Dawley rats, 25 mg/kg PO
Method: Sample preparation: Following oral administration of 25 mg/kg of D-473 and D-142 in male Sprague Dawley rats, the blood samples were collected at different time points over a period of 8 h for analysis. Concentrations of D-473 and D-142 in plasma were quantitated using a set of calibration standards prepared in blank matrix that were processed in parallel. Plasma concentration evaluation was carried out by the CRO, Absorption System, PA. Additionally, brain uptake studies of D-473 were carried out at three different time points (2, 4 and 6 h) following oral administration of 25 mg/kg D-473. Concentrations of D-473 in rat brain were quantitated using a set of calibration standards which were prepared in blank brain homogenate matrix on the day of analysis. The standard samples (5, 10, 25, 100, 500, 1000, and 2000 ng/mL) for calibration curve were prepared by spiking 45 µL of blank rat plasma with 5 µL of appropriate working dilution of D-473 in acetonitrile. The bioanalytical sample preparation for brain and plasma analysis followed by quantification of test compounds entailed the addition of 250 µL acetonitrile to every 50 µL of standard and analyte samples to precipitate tissue plasma proteins and tissue macromolecules. These mixtures were then vortexed for 15 min at 1400 rpm. The suspensions were then clarified by centrifugation (18000 g, 10 min at 4°C), and each 150 µL of the resulting supernatant was mixed well with 50 µL 0.1% formic acid in 50/50 (v/v) ACN/water solution for about 10 sec. The mixtures were again centrifuged (18000 g, 10 min at 4°C) before 100 µL of clear supernatant were transferred to auto sampler vials for LC-MS/MS analysis.
The analysis of blood sample was carried out by the CRO Absorption system, PA. Briefly, the analysis was carried out by Waters Acquity UPLC equipped with PE Sciex API4000 mass spectrometer. Reverse phase Waters Acquity BEH Phenyl Column 1.7micron, 2.1×30 mm column was used for analysis. 5 µL of sample solutions were injected with a flow rate 1 mL/min and the samples were eluted with gradient elution using solvent A (10% buffer: 90% water) and solvent B (10% buffer: 90% acetonitrile). Buffer used was 40 mM Ammonium Formate Buffer, pH 3.5. Pharmacokinetic prarameters were estimated by a non-compartmental model using WinNonlin v5.2.1 software.

H2 = target: T2, H2 (Homo sapiens, UniProt P25021); assay: NIMH PDSP receptor binding, H2; details: [3H]Tiotodine
T2 construct: NIMH PDSP
T2 sequence (P25021 whole entry): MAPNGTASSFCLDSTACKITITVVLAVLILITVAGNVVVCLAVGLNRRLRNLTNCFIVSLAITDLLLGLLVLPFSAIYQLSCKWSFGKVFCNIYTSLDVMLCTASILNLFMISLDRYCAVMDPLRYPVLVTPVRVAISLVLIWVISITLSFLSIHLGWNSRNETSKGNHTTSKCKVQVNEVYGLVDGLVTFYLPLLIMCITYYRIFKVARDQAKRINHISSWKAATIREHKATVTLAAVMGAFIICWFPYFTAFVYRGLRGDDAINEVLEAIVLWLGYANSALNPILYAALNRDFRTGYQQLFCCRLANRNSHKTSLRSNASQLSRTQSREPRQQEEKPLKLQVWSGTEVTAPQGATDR

D4 = target: T3, D4 (Homo sapiens, UniProt P21917); assay: NIMH PDSP receptor binding, D4; details: [3H]N-methylspiperone, read-out: % Inhibition of Binding at 10 µM D-473
T3 construct: purchased NIMH PDSP
T3 sequence (P21917 whole entry): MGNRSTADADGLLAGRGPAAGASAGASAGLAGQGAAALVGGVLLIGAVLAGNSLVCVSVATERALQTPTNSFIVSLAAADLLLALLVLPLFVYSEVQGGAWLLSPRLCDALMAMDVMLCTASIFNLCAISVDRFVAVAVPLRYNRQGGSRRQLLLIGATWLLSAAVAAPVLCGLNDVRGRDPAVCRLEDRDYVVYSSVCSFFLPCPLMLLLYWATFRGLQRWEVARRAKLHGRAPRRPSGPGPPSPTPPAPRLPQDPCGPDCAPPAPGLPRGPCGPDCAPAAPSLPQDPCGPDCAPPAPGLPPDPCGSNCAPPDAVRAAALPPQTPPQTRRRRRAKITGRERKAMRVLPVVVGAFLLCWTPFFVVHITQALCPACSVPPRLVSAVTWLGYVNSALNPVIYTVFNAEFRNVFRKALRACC

hSERT = hSERT (Homo sapiens, UniProt P31645); assay: Inhibition of [3H]5-HT uptake by cloned human SERT in HEK293 cells
hSERT, sequence (P31645 whole entry): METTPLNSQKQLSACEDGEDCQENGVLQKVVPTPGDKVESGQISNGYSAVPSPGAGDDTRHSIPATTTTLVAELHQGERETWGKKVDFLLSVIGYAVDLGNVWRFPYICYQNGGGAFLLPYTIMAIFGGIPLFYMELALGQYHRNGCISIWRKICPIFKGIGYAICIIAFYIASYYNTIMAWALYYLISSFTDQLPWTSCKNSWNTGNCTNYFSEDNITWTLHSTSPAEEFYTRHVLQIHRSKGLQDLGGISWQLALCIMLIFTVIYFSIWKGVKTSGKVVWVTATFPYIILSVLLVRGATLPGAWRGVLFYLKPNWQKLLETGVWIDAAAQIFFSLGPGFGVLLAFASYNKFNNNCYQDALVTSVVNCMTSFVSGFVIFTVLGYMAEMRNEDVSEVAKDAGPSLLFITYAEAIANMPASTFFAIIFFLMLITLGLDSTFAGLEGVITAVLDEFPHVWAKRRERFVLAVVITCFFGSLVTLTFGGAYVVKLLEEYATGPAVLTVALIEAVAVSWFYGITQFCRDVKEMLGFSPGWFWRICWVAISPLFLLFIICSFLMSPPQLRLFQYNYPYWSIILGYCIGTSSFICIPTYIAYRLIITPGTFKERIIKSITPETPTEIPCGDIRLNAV

## COc1ccc(CN[C@@H]2CO[C@H](C(c3ccc(F)cc3)c3ccc(F)cc3)C[C@H]2O)cc1 [Compound D-473, (2S,4R,5R)-2-(bis(4-fluorophenyl)methyl)-5-((4-methoxybenzyl)amino)tetrahydro-2H-pyran-4-ol]
Duration of immobility; 5 mg/kg p.o., vs vehicle
  Duration of immobility in the forced swimming test: did not produce significant reduction in immobility
Duration of immobility; 10 mg/kg p.o., vs vehicle (P<0.01), 10 mg/kg
  Duration of immobility in the forced swimming test: robust, statistically significant effect; also recorded: statistically significant different compared to vehicle
Duration of immobility; 25 mg/kg p.o., vs vehicle (P<0.01)
  Duration of immobility in the forced swimming test: statistically significant different compared to vehicle
Duration of immobility; 50 mg/kg p.o., vs vehicle (P<0.01)
  Duration of immobility in the forced swimming test: statistically significant different compared to vehicle
5HT1e
  inhibition at 10 µM: 38%
[1]; 3% HPßCD in water, read-out: Average maximum plasma concentration, Cmax
  Cmax: 404 ± 223 ng/mL
[1]; read-out: Estimated average half-life (converted)
  half-life: 6.39 ± 0.106 h
H2; 10 µM, read-out: % Inhibition of Binding at 10 µM D-473
  inhibition at 10 µM: 70.1%
H2; secondary assay, read-out: Ki for D-473
  Ki: 141 nM
D4
  inhibition at 10 µM: 37.2%
hSERT
  Ki: 9.18 ± 1.69 nM
hSERT; hSERT uptake inhibition
  Potency at SERT relative to Fluoxetine: almost one and a half fold greater
